Measured values as given in patent US20140234455A1, “ANTIMICROBIAL COMPOSITION, METHOD FOR ITS PREPARATION AND ITS USE” (PATOLAB OY, priority 2011, published 2014).

Legend:
Type in all cases: cell-based
Conditions in all cases: tested after one week washing, 24 hours incubation, Example 2 stock diluted 1:1 with tap water
E. coli = experiment: Challenge test on a steel plate (EN 13697)
Procedure: The test was performed after one week washing the steel plate with the composition.

[1] = test system: Staphylococcus aureus (MRSA); experiment: ISO 20645/20743 challenge test in accordance with EN 13697 on a steel plate
PS. aerug. = experiment: Challenge test on a steel plate (EN 13697)
A. niger = experiment: Challenge test on a steel plate (EN 13697)
C. albicans = experiment: Challenge test on a steel plate (EN 13697)
Enteroc. = experiment: Challenge test on a steel plate (EN 13697)

CCO [70% ethanol, ethanol]
log 1: Reduction in growth of microorganisms, E. coli (E. coli) | Reduction in growth of microorganisms, MRSA (Staphylococcus aureus) [1] | Reduction in growth of microorganisms, PS. aerug. (PS. aerug.) | Reduction in growth of microorganisms, A. niger (A. niger) | Reduction in growth of microorganisms, C. albicans (C. albicans) | Reduction in growth of microorganisms, Enteroc. (Enteroc.)
